Literature values, collected in patent US20040248232A1, “Method for treating Alzheimer's dementia” (priority 2003, published 2004).

Key:
[1] = target: recombinant human cathepsin B (Homo sapiens, UniProt P07858); conditions: cited from earlier work
cathepsin S [2] = target: T1, cathepsin S (Homo sapiens, UniProt P25774); conditions: relative to recombinant human cathepsin B; cited from earlier work
cathepsin L = cathepsin L (Homo sapiens, UniProt P07711); conditions: relative to recombinant human cathepsin B; cited from earlier work
[3] = target: T2, cathepsin L activity in DLD-1 cells (Homo sapiens, UniProt P07711); conditions: cited from earlier work
T2 construct: host or cells: DLD-1 cells (endogenous)

cathespin B = cathespin B (Homo sapiens, UniProt P07858); conditions: cited from earlier work
[4] = target: T3, cathepsin L activity in liver (Mus musculus, UniProt P06797); conditions: intraperitoneal injection, mice; cited from earlier work
T3 construct: host or cells: mouse liver (endogenous, in vivo dosing)

cathepsin B activity = target: T4, cathepsin B activity (Mus musculus, UniProt P10605); conditions: intraperitoneal injection, mice; cited from earlier work
T4 construct: host or cells: mouse (liver implied by the sentence), endogenous, in vivo dosing

cathepsin C = cathepsin C (Homo sapiens, UniProt P53634); conditions: at micromolar levels; cited from earlier work
[5] = tested on: cancer induced osteoporosis; conditions: intravenous or p.o. administration, mice; cited from earlier work
purified rat cathepsin L = purified rat cathepsin L (Rattus norvegicus, UniProt P07154); conditions: cited from earlier work
cathepsin S [6] = target: T1, cathepsin S; conditions: at micromolar levels; cited from earlier work
cathepsin K = target: T5, cathepsin K (Homo sapiens, UniProt P43235); conditions: at micromolar levels; cited from earlier work
T5 sequence (P43235 115-329): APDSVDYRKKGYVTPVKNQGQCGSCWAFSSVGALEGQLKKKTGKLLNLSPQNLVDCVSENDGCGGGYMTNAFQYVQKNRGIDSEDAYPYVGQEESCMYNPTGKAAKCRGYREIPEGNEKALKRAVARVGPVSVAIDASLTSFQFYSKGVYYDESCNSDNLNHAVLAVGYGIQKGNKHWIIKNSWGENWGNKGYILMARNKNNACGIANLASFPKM

purified rat cathepsin B = purified rat cathepsin B (Rattus norvegicus, UniProt P00787); conditions: at 10 uM; cited from earlier work
Colon-26 cancer cells = conditions: intravenous or p.o. administration, mice; cited from earlier work
[7] = tested on: human melanoma cells A375; conditions: intravenous or p.o. administration, mice; cited from earlier work

T1 sequence (P25774 115-331, species assumed): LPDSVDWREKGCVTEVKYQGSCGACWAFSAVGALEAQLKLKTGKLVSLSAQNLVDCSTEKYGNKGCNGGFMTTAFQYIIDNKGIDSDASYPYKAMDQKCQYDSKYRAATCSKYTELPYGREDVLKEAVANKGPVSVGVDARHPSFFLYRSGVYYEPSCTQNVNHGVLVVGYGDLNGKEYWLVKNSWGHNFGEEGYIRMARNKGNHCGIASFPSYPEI
Chain of purified rat cathepsin L (P07154 114-334): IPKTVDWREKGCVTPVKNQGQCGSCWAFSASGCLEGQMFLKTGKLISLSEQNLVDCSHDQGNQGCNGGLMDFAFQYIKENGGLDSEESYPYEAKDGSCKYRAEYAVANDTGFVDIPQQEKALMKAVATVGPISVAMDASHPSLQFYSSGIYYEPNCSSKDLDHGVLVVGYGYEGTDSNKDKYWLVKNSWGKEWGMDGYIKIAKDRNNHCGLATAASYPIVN
Chain of purified rat cathepsin B (P00787 80-333): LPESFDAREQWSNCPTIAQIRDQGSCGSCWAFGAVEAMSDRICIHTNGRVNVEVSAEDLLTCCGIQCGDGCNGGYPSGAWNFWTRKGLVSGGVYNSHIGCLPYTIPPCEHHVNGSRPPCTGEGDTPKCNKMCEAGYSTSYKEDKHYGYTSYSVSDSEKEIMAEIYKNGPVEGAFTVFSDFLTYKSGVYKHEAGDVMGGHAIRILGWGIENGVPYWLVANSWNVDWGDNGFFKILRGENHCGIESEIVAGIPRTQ
T3 sequence (P06797 114-334): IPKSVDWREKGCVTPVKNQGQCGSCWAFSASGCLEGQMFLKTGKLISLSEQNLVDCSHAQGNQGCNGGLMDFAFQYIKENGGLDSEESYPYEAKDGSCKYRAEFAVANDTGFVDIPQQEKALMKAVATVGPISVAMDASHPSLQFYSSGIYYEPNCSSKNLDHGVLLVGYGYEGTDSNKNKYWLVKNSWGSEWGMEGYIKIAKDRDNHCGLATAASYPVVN
T4 sequence (P10605 80-333): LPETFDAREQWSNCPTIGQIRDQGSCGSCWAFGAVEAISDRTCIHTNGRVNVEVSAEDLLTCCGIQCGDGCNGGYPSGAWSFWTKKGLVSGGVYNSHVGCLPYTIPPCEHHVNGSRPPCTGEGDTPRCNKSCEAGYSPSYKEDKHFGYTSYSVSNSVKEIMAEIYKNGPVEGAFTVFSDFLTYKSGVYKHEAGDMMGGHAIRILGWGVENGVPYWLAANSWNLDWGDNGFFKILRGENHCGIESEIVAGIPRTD
Chain of cathepsin C (P53634 25-463): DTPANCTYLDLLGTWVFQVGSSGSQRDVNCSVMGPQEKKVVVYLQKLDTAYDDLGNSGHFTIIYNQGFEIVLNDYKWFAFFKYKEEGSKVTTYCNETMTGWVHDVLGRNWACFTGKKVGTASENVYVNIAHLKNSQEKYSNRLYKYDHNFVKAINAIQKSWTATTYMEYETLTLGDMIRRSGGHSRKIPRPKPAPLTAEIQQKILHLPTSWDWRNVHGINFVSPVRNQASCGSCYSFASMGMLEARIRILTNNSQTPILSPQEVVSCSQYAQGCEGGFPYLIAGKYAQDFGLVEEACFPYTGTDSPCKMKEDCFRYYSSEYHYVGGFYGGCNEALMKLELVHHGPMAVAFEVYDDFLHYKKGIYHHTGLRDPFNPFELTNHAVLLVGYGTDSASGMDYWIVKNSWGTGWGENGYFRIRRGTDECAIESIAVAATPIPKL
T2 sequence (P07711 114-333): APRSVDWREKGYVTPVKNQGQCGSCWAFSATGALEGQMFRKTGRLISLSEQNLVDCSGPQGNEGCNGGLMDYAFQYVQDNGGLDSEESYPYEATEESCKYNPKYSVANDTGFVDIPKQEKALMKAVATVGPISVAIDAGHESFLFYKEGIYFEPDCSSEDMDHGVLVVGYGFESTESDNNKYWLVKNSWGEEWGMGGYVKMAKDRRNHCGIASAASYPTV
Chain of cathepsin L (P07711 114-333, species assumed): as the sequence (P07711 114-333) above

## Cc1cccc(C[C@H](NC(=O)c2ccc(F)cc2F)C(=O)N[C@@H](C#N)COCc2cccc(C(=O)O)c2)c1 [N-[2-[(3-Carboxyphenyl)methoxyl-1-(S)-cyanoethyl]-3-methyl-N-(2,4-difluorobenzoyl)-L-phenylalaninamide]
[1]
  recombinant human cathepsin B activity: inhibit
Cathepsin S [2]
  fold less potent in blocking cathepsin S than cathepsin B: approximately 100 fold
Cathepsin L
  fold less potent in blocking cathepsin L than cathepsin B: approximately 100 fold

## CC(C)C[C@H](NC(=O)[C@H]1CCCN1C#N)C(=O)OCc1ccccc1 [1-cyano-(D)-prolylleucine benzyl ester]
[3]
  cathepsin L activity in DLD-1 cells: completely inhibited
Cathespin B
  activity on cathespin B: minimal activity

## CN(C)C(=O)[C@H](Cc1ccccc1)NC(=O)C1OC1C(=O)NCCc1ccccn1 (stereo in doubt) [CLIK-148]
[4]
  cathepsin L activity in liver: dose dependently inhibited
Cathepsin B activity
  cathepsin B activity: no effect
Cathepsin C
  activity on cathepsin C: minimal activities
[5]
  cancer induced osteoporosis: blocked cancer induced osteoporosis
Purified rat cathepsin L; at 1 uM
  inhibition of purified rat cathepsin L activity: completely inhibited
Purified rat cathepsin L
  level at which purified rat cathepsin L activity is inhibited: submicromolar levels
Cathepsin S [6]
  activity on cathepsin S: minimal activities
Cathepsin K
  activity on cathepsin K: minimal activities
Purified rat cathepsin B
  effect on purified rat cathepsin B activity: no effect
Colon-26 cancer cells
  bone metastasis of Colon-26 cancer cells: blocked bone metastasis
[7]
  bone metastasis of human melanoma cells A375: blocked bone metastasis
